A word on the IC50: it is the concentration needed to halve the response being measured.

Each structure is given as a SMILES string. Calls of active or inactive are those of the source. The rule behind the calls is not given here.

We go through three compounds from ChEMBL document CHEMBL5357053, “Neopetrotaurines A-C, Isoquinoline Alkaloids with an Unprecedented Taurine Bridge from the Sponge Neopetrosia sp” (J Nat Prod, 2024).

What all share (assay type): functional, cell-based
One test relates to Rh4. Put plainly: Downregulation of FOXO1 target gene set in human Rh4 cells measured after 6 hrs by GSEA method. The note with it: dose 1.9 µM.
The subject of another test is SCMC. Description: Downregulation of FOXO1 target gene set in human SCMC cells measured after 6 hrs by GSEA method.
A short description of test [1]: Antiproliferative activity against human SCMC cells assessed as inhibition of cell viability measured after 72 hrs by IncuCyte live-cell imaging assay.
A short description of test [2]: Antiproliferative activity against human Rh4 cells assessed as inhibition of cell viability measured after 72 hrs by IncuCyte live-cell imaging assay. The following applies: Rh4, 72 h.

Consider `COC1=C(C)C(=O)c2c(cn(C)c(=O)c2NCCS(=O)(=O)Oc2c(C)c(OC)c(O)c3c[n+](C)ccc23)C1=O`, for which the result in the test with Rh4 and in the test on SCMC was inactive. In addition, the concentration for half-maximal inhibition (IC50) is 7.3 µM in test [1] and 1900 nM in test [2].

Consider `COC1=C(C)C(=O)c2c(cn(C)c(=O)c2NCCS(=O)(=O)Oc2c(C)c(OC)c(O)c3c[n+](C)c(C(=O)O)cc23)C1=O`, for which the result in the test with Rh4 and in the test with SCMC was inactive. Moreover, the figures for the half-maximal inhibitory concentration (IC50) in test [1] and in test [2] were 7.4 µM and 2300 nM, respectively.

For `COC(=O)c1cc2c(OS(=O)(=O)CCNc3c4c(cn(C)c3=O)C(=O)C(OC)=C(C)C4=O)c(C)c(OC)c(O)c2c[n+]1C`, the result in the test with Rh4 and in the test with SCMC was Active. For the same compound, the IC50 came out at 11 µM in test [1] and 3300 nM in test [2].
